This is an account of results in publication PMC9655618 (Cancers, 2022).

Test [1] relates to glucocorticoid receptor (GR)-dependent transcriptional activity, MDA-kb2 cells. The test can be described thus: GR-mediated transcription, luciferase reporter in MDA-kb2 cells (dexamethasone). Conditions: 100 nM Dexamethasone; compounds 1–10 µM. In general terms: A reporter such as luciferase makes a cellular process visible.
Test [2] concerns T47D cancer cell spheroids. The test can be described thus: Real-time monitoring of 3D tumor spheroid growth. The class given is cell-based, human. Conditions: 8 days.
The next test has as its system MDA-MB-231 cells. The test can be described thus: MTT cell viability assay. Conditions: Homo sapiens, MDA-MB-231, 72 h, 10%FBS growth media. The class given is cell-based, human. As to the method: (§1) Straightforward, the tetrazolium salt 3-(4,5-methyltiazol-2yl-)-2,5diphenyl-tetrazolium bromide (MTT) (Applichen, Darmstadt, Germany) was added to cells, incubated for 2–4 h at 37 °C, and lysed in 10% SDS.
(In general: Formazan colour is commonly taken as a measure of viable cells.)

A further test has as its system Hs-578T cells. As to the kind of experiment: MTT cell viability assay. It counts as cell-based, human. The conditions noted are these: Homo sapiens, Hs-578T, 72 h, 10%FBS growth media. As to the method: as §1
The next test deals with Ishikawa cells. As to the kind of experiment: MTT cell viability assay. The class given is cell-based, human. Conditions: Homo sapiens, Ishikawa, read-out: IC50 (μM) ISHIKAWA, 72 h, 10%FBS growth media. As to the method: as §1
The next test relates to MCF-7/BUS cells. As to the kind of experiment: MTT cell viability assay. The class given is cell-based, human. The conditions noted are these: Homo sapiens, MCF7/BUS; 72 h, 10%FBS growth media, MTT; read-out: IC50 (μM) MCF-7/BUS. As to the method: as §1
A further test relates to PBMC. As to the kind of experiment: MTT cell viability assay. It counts as cell-based. Conditions: Homo sapiens, 72 h, 10%FBS growth media. As to the method:
as §1

The test system of test [3] is androgen receptor (AR)-dependent transcriptional activity, MDA-kb2 cells. The test can be described thus: AR-mediated transcription, luciferase reporter in MDA-kb2 cells (testosterone). The conditions noted are these: 100 nM Testosterone; compounds 1–10 µM.
In test [4] the target is T1, ERα protein in T47D E2-deprived cells (Homo sapiens, UniProt P03372).
T1 construct: ERα protein expression were also explored in T47D E2-deprived BC cells; endogenous in cells; host or cells: T47D (steroid-deprived)
The test can be described thus: Immunofluorescence (confocal microscopy). Conditions: 5 µM 24 h, then E2 1 nM 30 min. It counts as cell-based. As to the method:
T47D cells were seeded with steroid-deprived FBS (10% DCC-FBS) RPMI medium supplemented with L-Glutamine/HEPES/sodium pyruvate/PEST. Then, cells were seeded at 175,000 cells/well in 5% DCC-FBS in 6-well plates containing 22 × 22 mm coverslips (Menzelgläser, vWR, Radnor, PA, USA). […] After this, cells were washed with PBS, fixed in 4% paraformaldehide (PFA; Sigma-Aldrich, St. Louis, MO, USA) for 15 min, blocked-permeabilized in PBS-0.5% BSA-0.1% Triton X-100 (Thermo Scientific, Waltham, MA, USA) for 1 h, and, finally, incubated with mouse ERα (Santa Cruz Biotech, CA, USA) and rabbit β-catenin (C2206 Sigma-Aldrich, St. Louis, MO, USA) primary antibodies in the same blocking solution overnight at 4 °C within a hand-made humid chamber. After three washing with PBS-0.5% BSA-0.1% Triton X-100 (Thermo Scientific, Waltham, MA, USA), cells were incubated with anti-mouse Alexa fluor 488 (Life Technologies, CA, USA) or anti-rabbit Alexa 647 (Life Technologies, Carlsbad, CA, USA) secondary antibodies, containing DAPI (4′,6-diamidino-2-phenylindole; Sigma-Aldrich, St. Louis, MO, USA), for 1 h at room temperature. Finally, slides were mounted with Fluormount-G® (Thermo Fisher Scientific, Waltham, MA, USA), and cells were visualized using a confocal microscope Zeiss LSM 800 (Carl Zeiss AG, Jena, Germany). The fluorescent signal was quantified by using a segmentation method for image analysis.

The next test deals with MCF-10A cells. As to the kind of experiment: Drug combination assay with 4-OHTAM (MTT). Conditions: Homo sapiens, 72 h, read-out: IC50, cell viability inhibition.
The target in test [5] is T2, native ERα from rat uterine cytosol (Rattus norvegicus, UniProt P06211).
T2 construct: from tissue; host or cells: uterine cytosol of ovariectomized Sprague-Dawley rats
As to the kind of experiment: Radiolabeled E2 competitor binding assay in rat uterine cytosol (RUC). As to the method: Animal studies were approved by the Bioethics Committee of the University of Las Palmas de Gran Canaria (OEBA-ULPGC 40/2020), and the experiments were carried out according to OECD guidelines (ER-RVC OPPTS 890.1250). ER was obtained from rat uterine cytosol (RUC). Briefly, RUC was extracted from 8–12 weeks old Sprague-Dawley rats 13–16 days after they were ovariectomized under ketamine (75 mg/kg)/medetomidine (1 mg/kg) anesthesia. Uteri were removed, trimmed free of adipose tissue, blotted, weighed and frozen on liquid nitrogen until RUC isolation. Then, 100 mg of uteri per ml of ice-cold TEGM buffer (10 mM Tris, 1.5 mM EDTA, 10% glycerol, 3 mM MgCl2, 1 mM PMSF, 1 mM DTT, pH 7.4) were homogenized by using a Polytron PT3000 homogenizer (Kinematica, Malters, Switzerland) at 15,000 rpm for 3 bursts of 30″ each. The homogenate was sedimented, and the supernatant was centrifuged at 105,000 g for 60 min at 4 °C to obtain RUC. Protein concentration was determined by Bradford´s assay (Bio-Rad, Irvine, CA, USA), and 2 mg/mL of RUC was taken from all samples [35]. […] Then, 200 μL of DCC suspension (0.8% charcoal: 0.08% dextran; w:w) in cold TE buffer was added to each tube and incubated for 10 min before DCC was centrifuged at 3000 g for 10 min at 4 °C. Supernatant (200 μL) was obtained to measure total and non-specific bound radioactivity in TRICARB 4810 LSC counter (PerkinElmer). […]

T2 sequence (P06211 whole entry): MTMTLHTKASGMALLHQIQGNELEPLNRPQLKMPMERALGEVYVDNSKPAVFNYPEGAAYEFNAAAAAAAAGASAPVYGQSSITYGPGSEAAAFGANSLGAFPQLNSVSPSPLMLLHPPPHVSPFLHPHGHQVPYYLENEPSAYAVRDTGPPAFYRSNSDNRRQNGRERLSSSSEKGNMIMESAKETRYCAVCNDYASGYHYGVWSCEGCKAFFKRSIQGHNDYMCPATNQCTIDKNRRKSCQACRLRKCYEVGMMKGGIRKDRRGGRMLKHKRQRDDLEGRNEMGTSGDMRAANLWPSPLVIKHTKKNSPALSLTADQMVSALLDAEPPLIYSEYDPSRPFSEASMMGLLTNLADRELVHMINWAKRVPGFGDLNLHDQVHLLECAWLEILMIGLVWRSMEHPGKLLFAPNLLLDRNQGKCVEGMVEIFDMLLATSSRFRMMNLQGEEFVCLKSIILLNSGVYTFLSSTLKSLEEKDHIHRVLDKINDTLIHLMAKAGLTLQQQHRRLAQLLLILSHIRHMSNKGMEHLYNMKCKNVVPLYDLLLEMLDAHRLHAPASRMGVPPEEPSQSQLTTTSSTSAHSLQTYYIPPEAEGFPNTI
Method for MCF-10A cells: Cells were seeded at 5000 and 7500 cells, per well, respectively, and cell viability was assessed by MTT assays 72 h after treatment. Briefly, cells were incubated with constant ratio combinations of indicated test compounds by doubling dilutions of the individual drugs over a wide range of concentrations [43]. […] Dose-effect curves of the individual or combined compounds were plotted and assessed by the median effect method of Chou and Talalay [43] using Calcusyn software 2.0 (Biosoft, Cambridge, UK), thus obtaining the combination index (CI) values. CI values less than 1, equal to 1, and greater than 1 indicated synergism, addition, and antagonism, respectively.

Regarding `Cc1ccc(C2=CC(O)(c3ccccc3)N(Cc3ccccc3)C2=O)cc1C` (stereo not shown) [compound 32, 1-benzyl-3-(3,4-dimethylphenyl)-5-hydroxy-5-phenyl-1H-pyrrol-2(5H)-one], in test [1], the “effect on DEX-induced luciferase activity” value is given as “Neither 4-OHTAM nor compounds 32 or 35 displayed cross-activation”. In test [2], the “effect on spheroid growth” value is “reduced the growth of T47D cancer cell spheroids”. Besides, the IC50 in the test on MDA-MB-231 cells is 7.63 ± 2.38 µM; with Hs-578T cells it was over 10 µM; in the test with Ishikawa cells, 0.27 ± 0.09 µM; with MCF-7/BUS cells, 5.32 ± 2.09 µM; in the test with PBMC it was over 30 µM; in the test on MCF-10A cells, 350 nM. Also, the IC50 in test [5] amounted to 128.4 ± 1.25 µM. The “effect on T-induced luciferase activity” value in [3] was “Neither 4-OHTAM nor compounds 32 or 35 displayed cross-activation”. Moreover, the “effect on ERα protein levels by confocal microscopy” value in test [4] is reported as “showed no effects”.
Take `O=C1C(c2ccc([N+](=O)[O-])cc2)=CC(O)(c2ccccc2)N1Cc1ccccc1` (stereo not shown) [compound 35, 1-benzyl-5-hydroxy-3-(4-nitrophenyl)-5-phenyl-1H-pyrrol-2(5H)-one]: the “effect on DEX-induced luciferase activity” value in test [1] is given as “Neither 4-OHTAM nor compounds 32 or 35 displayed cross-activation”. Moreover, the “effect on spheroid growth” value in [2] is “reduced the growth of T47D cancer cell spheroids”. Further, the IC50 was 9.08 ± 0.93 µM in the test on MDA-MB-231 cells; 8.22 ± 1.78 µM with Hs-578T cells; 1.29 ± 0.38 µM in the test on Ishikawa cells; 2.64 ± 0.88 µM in the test on MCF-7/BUS cells; 17.3 ± 6.48 µM in the test on PBMC; over 560 nM in the test with MCF-10A cells. The same molecule returned an IC50 in test [5] of 76.6 ± 1.3 µM. Further, the “effect on T-induced luciferase activity” value in test [3] is reported as “Neither 4-OHTAM nor compounds 32 or 35 displayed cross-activation”. In [4], the “effect on ERα protein levels by confocal microscopy” value is “significantly decreased ERα protein levels both in nuclei and cytoplasmic compartments”.
